Laboratory results from patent publication US8835622B2, “Expression cassettes for seed-specific expression in plants” (Bayer BioScience N.V., priority 2008, dated 2014).
Entries after “also recorded” stand apart in the source; their conditions may differ. Read-outs that look alike come from different tables or passages of the source.

Test system: CYP704A2
Experiment: Enzyme activity and substrate specificity of recombinant CYP704A2 (microsomes from yeast, radiolabeled substrates, TLC and GC/MS of metabolites)
Assay type: biochemical, Arabidopsis thaliana
Settings: for substrate of CYP704A2 / relative rate of metabolism (in words): 100 μM 14C radiolabelled substrate, with NADPH, TLC; for substrate of CYP704A2 / relative rate of metabolism (in words) / Product (nmole/min/nmole P450) / % of metabolisation: 20 min at 27° C.; for Product (nmole/min/nmole P450) / % of metabolisation: microsomes from yeast expressing CYP704A2, 100 μM radiolabeled substrate, 78 pmoles of CYP704A2, TLC
Description: Heterologous expression of CYP704A2 in Yeast—For functional expression of the full length CYP704A2 clone, we used a yeast expression system specifically developed for the expression of P450 enzymes and consisting of plasmid pYeDP60 and Saccharomyces cerevisiae WAT11 strain (Pompon D. et al (1996) Methods Enzymol 272, 51-64). Yeast cultures were grown and CYP704A2 expression was induced as described in Pompon et al. (1996) see above from one isolated transformed colony. After growth, cells were harvested by centrifugation and manually broken with glass beads (0.45 mm diameter) in 50 mM Tris-HCl buffer (pH 7.5) containing 1 mM EDTA and 600 mM sorbitol. The homogenate was centrifuged for 10 min at 10,000 g. The resulting supernatant was centrifuged for 1 h at 100,000 g. The pellet consisting of microsomal membranes was resuspended in 50 mM Tris-HCl (pH 7.4), 1 mM EDTA and 30% (v/v) glycerol with a Potter-Elvehjem homogenizer and stored at −30° C. The volume of resuspension buffer is proportional to the weight of yeast pellet: microsomes extracted from 6 g of yeast are resuspended in 3 ml of buffer. All procedures for microsomal preparation were carried out at 0-4° C. The cytochrome P450 content was measured by the method of Omura and Sato (1964) J Biol Chem 239, 2370-2378.
Enzyme activities—radiolabeled substrates were dissolved in ethanol that was evaporated before the addition of microsomes into the glass tube. Resolubilization of the substrates was confirmed by measuring the radioactivity of the incubation media. Enzymatic activities of CYP704A2 from transformed yeast or Arabidopsis microsomes were determined by following the formation rate of metabolites. The standard assay (0.1 ml) contained 20 mM sodium phosphate (pH 7.4), 1 mM NADPH, and radiolabeled substrate (100 μM). The reaction was initiated by the addition of NADPH and was stopped by the addition of 20 μl acetonitrile (containing 0.2% acetic acid). The reaction products were resolved by TLC or HPLC as described below.
Thin layer chromatographic (TLC) methods—Incubation media were directly spotted on TLC plates. For separation of metabolites from residual substrate, TLC were developed with a mixture of diethyl ether/light petroleum (boiling point, 40-60° C.)/formic acid (50:50:1, v/v/v). The plates were scanned with a radioactivity detector (Raytest Rita Star). The area corresponding to the metabolites were scraped into counting vials and quantified by liquid scintillation, or they were eluted from the silica with 10 ml of diethyl ether, which was removed by evaporation. They were then subjected to GC/MS analysis.
GC/MS analysis—GC-MS analysis were carried out on a gas chromatograph (Agilent 6890 Series) equipped with a 30-m capillary column with an internal diameter of 0.25 mm and a film thickness of 0.25 μm (HP-5MS). The gas chromatograph was combined with a quadrupole mass selective detector (Agilent 5973N). Mass spectra were recorded at 70 eV and analysed as in Eglinton et al. (1968) Org. Mass. Spectrom 1, 593-611.
The enzyme activity and substrate specificity of CYP704A2 was subsequently evaluated. Thereto 20 μl of microsomal membranes overexpressing CYP704A2 (i.e. […]) were incubated 20 min at 27° C. with 100 μM of different ^14C radiolabelled fatty acids, alkanols or alkanes (purchased with American Radiolabeled Chemicals) together with 0.1 mM of NADPH, 0.4 Units of glucose-6-phosphate dehydrogenase, 3 mM glucose-6-phosphate in buffer NaPi 20 mM, pH 7.4 in a final reaction volume of 100 μl. The reaction was quenched by the addition of 20 μl of 20% of acetonitrile in water, and the incubation mix was spotted on silicagel 60F254 plates (Merck) for analysis. Plates were developed with a mix of ether/petroleum ether/formic acid 50/50/1 until the migration front reached the top of the plate. Dried plates were then scanned with a Raytest radioisotope thin-layer analyzer and radioactivity in the spots of interest was quantified in order to evaluate the substrate conversion. […]

SMILES | substrate of CYP704A2 / relative rate of metabolism (in words) | Product (nmole/min/nmole P450) | also measured
CCCCCCCCCCCCCC(=O)O [myristic acid] | not substrates | – | –
CCCCCCCCCCCCCCCCCC(=O)O [stearic acid] | not substrates; also recorded: not metabolized | – | –
CCCCCCCCCCCCCCCCO [C16-OH:0] | – | 6.5 nmole/min/nmole P450 | –
CCCCCCCCCCCCO [C12-OH:0, dodecanol] | – | 12.6 nmole/min/nmole P450 | products formed on incubation with CYP704A2 (TLC, GC/MS): formation of two more polar compounds
CCCCCC/C=C\CCCCCCCC(=O)O [palmitoleic acid] | not substrates | – | –
CCCCCCCCCCCCCCCC [C16 alkane, hexadecane] | – | 22.4 nmole/min/nmole P450 | products formed on incubation with CYP704A2 (TLC, GC/MS) (incubation with CYP704A2, products purified on TLC and identified by GC/MS): formation of three more polar compounds; % of metabolisation: 7.1%
CCCCCCCCCCCCCCCC(=O)O [C16:0, palmitic acid] | preferentially metabolized | 18.3 nmole/min/nmole P450 | substrate of CYP704A2 / relative rate of metabolism (in words) (listed as palmitic acid): best substrate; rate of palmitic acid metabolism (concentration of palmitic acid of 100 μM): 18.3 nmol/min/nmole of P450; % of metabolisation: 14.3%
CCCCCCCCCCCC(=O)O [C12:0, lauric acid] | – | 7.3 nmole/min/nmole P450 | –
